Reference: patent publication US9278093B2, “Aldosterone synthase inhibitors” (Merck Sharp & Dohme Corp., priority 2012, dated 2016)

Legend:
human CYP11B2 = human CYP11B2 (Homo sapiens (Human), UniProt P19099); test: V79-Human-CYP11B2 Assay; type: cell-based; conditions: V79MZh11B2 cells, substrate deoxycorticosterone 100 nM, 50 min incubation
Method: (§1) V79MZh11B1 and V79MZh11B2 cells (8×10^5 cells/well) were grown on 24-well culture plates until confluence. Before testing, the DMEM culture medium was removed and 450 μl of fresh DMEM containing the inhibitor was added to each well. After a preincubation step of 60 min at 37° C., the reaction was started by the addition of 50 μl of DMEM in which the substrate deoxycorticosterone (containing 0.15 μCi of [1,2-3H]-deoxycorticosterone in ethanol, final test concentration 100 nM) was dissolved. Incubation times were 25 min for V79MZh11B1 and 50 min for V79MZh11B2 cells at 37° C., respectively. The enzyme reactions were stopped by extracting the supernatant with ethyl acetate. Samples were centrifuged (10.000 g, 5 min) and the solvent was pipetted into fresh cups. After evaporation of the solvent, the steroids were redissolved in 40 μl of […] and analyzed by HPLC. Detection and quantification of the steroids were performed using a radioflow detector. To first estimate the different IC50 values, five different concentrations ranging from 1 to 10.000 nM were measured. For the following IC50 determination, three different concentrations (repeat-determinations) were measured for each […] value of each inhibitor in which the second concentration led to an inhibition of approximately 40 to 60%. […] The final IC50 value was estimated as the average of three or four independent IC50 values and a selectivity factor corresponding to the ratio between the […] values of CYP11B1 and CYP11B2 was calculated for each substance.

human CYP11B1 = human CYP11B1 (Homo sapiens (Human), UniProt P15538); test: V79-Human-CYP11B1 Assay; type: cell-based; conditions: V79MZh11B1 cells, substrate deoxycorticosterone 100 nM, 25 min incubation
Method: as §1

Sequence of human CYP11B1 (P15538 25-503): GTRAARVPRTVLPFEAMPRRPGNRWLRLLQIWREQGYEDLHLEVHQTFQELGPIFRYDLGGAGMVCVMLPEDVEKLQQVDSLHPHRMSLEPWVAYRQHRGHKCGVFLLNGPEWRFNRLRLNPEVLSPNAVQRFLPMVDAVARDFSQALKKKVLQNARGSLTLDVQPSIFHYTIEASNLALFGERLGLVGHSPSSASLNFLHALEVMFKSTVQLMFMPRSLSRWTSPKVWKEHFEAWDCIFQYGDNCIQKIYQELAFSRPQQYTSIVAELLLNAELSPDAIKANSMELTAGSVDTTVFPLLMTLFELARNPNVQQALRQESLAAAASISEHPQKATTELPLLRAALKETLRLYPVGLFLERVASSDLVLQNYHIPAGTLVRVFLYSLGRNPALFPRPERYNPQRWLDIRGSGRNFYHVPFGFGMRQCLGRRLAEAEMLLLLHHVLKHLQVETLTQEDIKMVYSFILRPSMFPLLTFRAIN
Sequence of human CYP11B2 (P19099 25-503): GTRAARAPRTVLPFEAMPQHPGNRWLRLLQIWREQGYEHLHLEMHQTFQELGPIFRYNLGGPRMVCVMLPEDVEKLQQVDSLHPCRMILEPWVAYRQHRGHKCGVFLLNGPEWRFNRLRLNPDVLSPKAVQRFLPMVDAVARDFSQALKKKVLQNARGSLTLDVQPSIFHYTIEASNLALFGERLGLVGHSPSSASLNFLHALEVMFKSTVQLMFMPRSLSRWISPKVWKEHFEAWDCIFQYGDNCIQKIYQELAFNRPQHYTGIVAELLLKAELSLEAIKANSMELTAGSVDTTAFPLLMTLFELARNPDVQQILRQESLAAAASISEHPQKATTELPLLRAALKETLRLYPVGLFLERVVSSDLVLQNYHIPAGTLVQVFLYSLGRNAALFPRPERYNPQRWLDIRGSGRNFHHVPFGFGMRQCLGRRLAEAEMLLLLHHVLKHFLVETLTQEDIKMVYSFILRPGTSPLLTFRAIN

IC50 (human CYP11B2) | IC50 (human CYP11B1) | SMILES
7.3 nM | 2290 nM | Cc1nnc2n1-c1c(F)cc(-c3cncc(F)c3C3CC3)cc1CC2 [Example 1, 7-(4-cyclopropyl-5-fluoropyridin-3-yl)-9-fluoro-1-methyl-4,5-dihydro-[1,2,4]triazolo[4,3-a]quinoline]
6 nM | 1420 nM | Cc1c(F)cncc1-c1cc(F)c2c(c1)CCc1nnc(C)n1-2 [Example 2, 9-fluoro-7-(5-fluoro-4-methylpyridin-3-yl)-1-methyl-4,5-dihydro-[1,2,4]triazolo[4,3-a]quinoline]
9.5 nM | 3970 nM | Cc1nnc2n1-c1c(F)cc(-c3cncc(F)c3C(C)C)cc1CC2 [Example 3, 9-fluoro-7-(5-fluoro-4-isopropylpyridin-3-yl)-1-methyl-4,5-dihydro-[1,2,4]triazolo[4,3-a]quinoline]
21.6 nM | 9800 nM | Cc1nnc2n1-c1c(F)cc(-c3cncc(F)c3Cl)cc1CC2 [Example 4, 7-(4-chloro-5-fluoropyridin-3-yl)-9-fluoro-1-methyl-4,5-dihydro-[1,2,4]triazolo[4,3-a]quinoline]
